Experimental findings from patent US20200131454A1, “ALCOHOL CONTAINING BIOFIILM-INHIBITING NON-ANTIMICROBIAL CLEANSING COMPOSITION” (GOJO Industries, Inc., priority 2018, published 2020) are described below.

Structures are written as SMILES.

Series [1] is described as follows: Forearm controlled application test (FCAT), skin hydration by Corneometer. It is filed as in vivo, human. The protocol:
(§1) Topical compositions were tested on skin samples for their ability to improve or maintain skin hydration and limit transepidermal water loss (TEWL). Measurement of the TEWL, expressed in grams per square meter and per hour, is used for studying the water barrier function of the human skin. The more perfect the skin protective coat, the higher the water content and the lower the TEWL. For each of the tests, a negative control was used, which included treatment with 8% SLS. An untreated skin sample was also tested for comparison. The tests were performed using the forearm controlled application test (FCAT) methodology. The various samples were applied to test sites on a forearm over the course of several days. On each day, up to six applications were made and the change in TEWL and hydration levels were recorded. The hydration levels were measured using a Corneometer® based on capacitance measurement of a dielectric medium. The Corneometer® measures the change in the dielectric constant due to skin surface hydration changing the capacitance of a precision capacitor. The measurement can detect even slight changes in the hydration level.
The change in TEWL and hydration levels represent the change observed for that particular sample compared to a baseline (the transepidermal water content or hydration level prior to treatment). […]

Series [2] is described as follows: Forearm controlled application test (FCAT), transepidermal water loss (TEWL). It is filed as in vivo, human. On the procedure:
as §1, with “level. The change in TEWL and hydration levels represent the change observed for that particular sample compared to a baseline (the transepidermal water content or hydration level prior to treatment). […]” for “level.”

With `CCCCCCCCCCCCOS(=O)(=O)[O-].[Na+]` [negative control, SLS], the hydration levels entry in series [1] (Example 1, FIG. 5, change compared to baseline) is reported as “lowest hydration levels”. Besides, the “change in hydration levels” value in series [1] (Example 2, FIG. 8, wet and dry application, 3 and 5 days of treatment) was “significant reduction in hydration level”. The TEWL result in series [2] (Example 1, FIG. 6, change compared to baseline) is listed as “highest TEWL”. In addition, the “change in TEWL” value in series [2] (Example 2, FIG. 7, wet and dry application, 3 and 5 days of treatment) was “significant TEWL”.
